Results as given in patent publication US10144715B2, “Piperazine derivatives as liver X receptor modulators” (priority 2014, dated 2018).
Like-named read-outs stand apart in the source and are kept apart here.

Key:
[1] = target: Gal4 DNA binding domain fused to the LBD of LXRβ in HEK293 cells (Homo sapiens (Human), UniProt P55055); test: cell-based
[2] = target: LXR α LBD protein (Homo sapiens (Human), UniProt Q13133); test: LXR α radioligand binding assay (SPA, competition with [3H]TO901317); settings: read-out: LXRα Binding Ki
Sequence of LXR α LBD protein (Q13133 209-447): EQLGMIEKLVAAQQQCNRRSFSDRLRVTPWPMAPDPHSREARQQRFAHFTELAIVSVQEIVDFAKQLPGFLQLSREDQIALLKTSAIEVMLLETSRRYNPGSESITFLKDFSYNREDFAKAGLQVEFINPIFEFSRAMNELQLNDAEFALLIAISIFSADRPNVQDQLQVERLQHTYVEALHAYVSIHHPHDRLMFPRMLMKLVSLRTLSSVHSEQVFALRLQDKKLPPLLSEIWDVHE

[3] = target: LXR β LBD protein (Homo sapiens (Human), UniProt P55055); test: biochemical; type: binding
Sequence of LXR β LBD protein (P55055 222-460 limits assumed): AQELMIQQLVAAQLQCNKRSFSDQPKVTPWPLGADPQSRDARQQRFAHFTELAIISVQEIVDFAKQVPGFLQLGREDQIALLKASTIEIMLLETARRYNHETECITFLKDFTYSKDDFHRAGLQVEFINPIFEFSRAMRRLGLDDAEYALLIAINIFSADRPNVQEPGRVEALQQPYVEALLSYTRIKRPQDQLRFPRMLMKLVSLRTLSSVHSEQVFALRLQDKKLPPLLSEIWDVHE

[4] = target: Gal4 DNA binding domain fused to the LBD of LXRα in HEK293 cells (Homo sapiens (Human), UniProt Q13133); test: LXR luciferase transcriptional reporter gene assay, agonist mode, LXRα; type: cell-based; settings: for EC50: read-out: Cell LXRα EC50
Sequence of Gal4 DNA binding domain fused to the LBD of LXRα in HEK293 cells (Q13133 209-447): as the sequence (Q13133 209-447) above

[5] = Biological Test Example 2, agonist mode
[6] = Biological Test Example 1, read-out: LXRβ Binding Ki

Sequence of Gal4 DNA binding domain fused to the LBD of LXRβ in HEK293 cells (P55055 222-460 limits assumed): as the sequence (P55055 222-460 limits assumed) above

`C[C@H](c1ccc(C(F)(F)F)cc1)N1CCN(c2cccc(S(C)(=O)=O)c2)C[C@H]1c1ccccc1` [46-19, (R)-4-(3-(methylsulfonyl)phenyl)-2-phenyl-1-((R)-1-(4-(trifluoromethyl)phenyl)ethyl)piperazine] was tested, and the “Cell LXRβ efficacy” value [1] was 4348 (6) %, the EC50 [1] was 4350 nM and the Ki [2] was over 3330 nM. The Ki [3] was 1900 nM and the EC50 [4] was over 20000 nM.
`C[C@](O)(c1ccc(CN2CCN(c3cccc(S(C)(=O)=O)c3)C[C@H]2c2ccccc2)cc1)C(F)(F)F` [46-29, (S)-1,1,1-trifluoro-2-(4-(((R)-4-(3-(methylsulfonyl)phenyl)-2-phenylpiperazin-1-yl)methyl)phenyl)propan-2-ol] was tested, and the EC50 [1] was over 20000 nM, the Ki [2] was 6320 nM and the Ki [3] was 1860 nM. The EC50 [4] was over 20000 nM.
In the case of `C[C@@](O)(c1ccc(CN2CCN(c3cccc(S(C)(=O)=O)c3)C[C@@H]2c2ccccc2)cc1)C(F)(F)F` [46-31, (R)-1,1,1-trifluoro-2-(4-(((S)-4-(3-(methylsulfonyl)phenyl)-2-phenylpiperazin-1-yl)methyl)phenyl)propan-2-ol], the EC50 [1] is reported as over 20000 nM, the Ki [2] is reported as 6560 nM and the Ki [3] is reported as 2170 nM. For the same compound, the EC50 [4] was over 20000 nM.
With `CC(C)[C@H]1CN(c2cccc(S(C)(=O)=O)c2)CCN1Cc1ccc(C(F)(F)F)nc1` [46-41, (S)-2-isopropyl-4-(3-(methylsulfonyl)phenyl)-1-((6-(trifluoromethyl)pyridin-3-yl)methyl)piperazine] the EC50 [1] was 559 nM, the “Cell LXRβ efficacy” value ([1]; agonist mode) was 559 (68) % and the Ki [2] was 1310 nM. The Ki ([3]; read-out: LXRβ Binding Ki) was 161 nM, the “Cell LXRα efficacy” value [4] was 2425 (60) % and the EC50 ([4]; agonist mode) was 2420 nM.
`CC(C)[C@H]1CN(c2ccc(CO)c(S(C)(=O)=O)c2)CCN1Cc1ccc(C(F)(F)F)cc1` [47-2, (S)-(4-(3-isopropyl-4-(4-(trifluoromethyl)benzyl)piperazin-1-yl)-2-(methylsulfonyl)phenyl)methanol] was tested, and the “Cell LXRβ efficacy” value [1] was 159 (65) %, the EC50 [1] was 159 nM and the Ki [2] was 119 nM. For the same compound, the Ki ([3]; read-out: LXRβ Binding Ki) was 27 nM, the “Cell LXRα efficacy” value [4] was 455 (70) % and the EC50 [4] was 455 nM.
`CC(C)[C@H]1CN(c2ccc(CO)c(S(C)(=O)=O)c2)CCN1Cc1ccc(C(F)(F)F)o1` [47-5, (S)-(4-(3-isopropyl-4-((5-(trifluoromethyl)furan-2-yl)methyl)piperazin-1-yl)-2-(methylsulfonyl)phenyl)methanol] was tested, and the “Cell LXRβ efficacy” value [1] was 248 (50) %, the EC50 [1] was 248 nM and the Ki [2] was 1090 nM. For the same compound, the Ki ([3]; read-out: LXRβ Binding Ki) was 109 nM, the “Cell LXRα efficacy” value [4] was 1187 (62) % and the EC50 [4] was 1190 nM.
For `CC(C)[C@@H]1CN(c2ccc(F)c(S(C)(=O)=O)c2)CCN1C[C@H]1CC[C@@H](C(F)(F)F)CC1` [48-24, (R)-4-(4-fluoro-3-(methylsulfonyl)phenyl)-2-isopropyl-1-(((1s,4S)-4-(trifluoromethyl)cyclohexyl)methyl)piperazine], the “Cell LXRβ efficacy” value ([1]; agonist mode) was 63%, the EC50 ([1]; agonist mode, read-out: Cell LXRβ EC50) was 563 nM and the Ki [2] was 765 nM. For the same compound, the Ki ([3]; read-out: LXRβ Binding Ki) was 55 nM, the “Cell LXRα efficacy” value [4] was 1347 (88) % and the EC50 [4] was 1350 nM.
`CC(C)(O)[C@H]1CCC[C@@H](CN2CCN(c3cccc(S(C)(=O)=O)c3)CC2c2ccccc2)C1` (stereo partly drawn) [48-25, 2-((1S,3R)-3-((4-(3-(methylsulfonyl)phenyl)-2-phenylpiperazin-1-yl)methyl)cyclohexyl)propan-2-ol] was tested, and the EC50 [1] was over 20000 nM, the Ki [2] was 1240 nM and the Ki [3] was 178 nM. For the same compound, the EC50 [4] was over 20000 nM.
`COCc1ccc(N2CCN(C[C@H]3CC[C@H](C(F)(F)F)CC3)[C@@H](c3ccccc3)C2)cc1S(C)(=O)=O` [48-49, (S)-4-(4-(methoxymethyl)-3-(methylsulfonyl)phenyl)-2-phenyl-1-(((1r,4S)-4-(trifluoromethyl)cyclohexyl)methyl)piperazine] was tested, and the “Cell LXRβ efficacy” value [1, 5] was 12%, the EC50 ([1]; Biological Test Example 2, agonist mode, read-out: Cell LXRβ EC50) was 1350 nM and the Ki [2] was 13800 nM. The Ki [3, 6] was 1490 nM, the “Cell LXRα efficacy” value [4] was 9842 (9) % and the EC50 [4] was 9840 nM.
For `CC(C)[C@H]1CN(c2cccc(S(C)(=O)=O)c2)CCN1CC1CCOCC1` [51-2, (S)-2-isopropyl-4-(3-(methylsulfonyl)phenyl)-1-((tetrahydro-2H-pyran-4-yl)methyl)piperazine], the EC50 [1] was 1360 nM, the “Cell LXRβ efficacy” value [1, 5] was 1362 (7) % and the Ki [2] was over 3330 nM. For the same compound, the Ki [3, 6] was over 2500 nM and the EC50 [4, 5] was over 20000 nM.
In the case of `CC(C)[C@H]1CN(c2cccc(S(C)(=O)=O)c2)CCN1CC1CCC(C)(C)OC1` (stereo partly drawn) [51-3, (2S)-1-((6,6-dimethyltetrahydro-2H-pyran-3-yl)methyl)-2-isopropyl-4-(3-(methylsulfonyl)phenyl)piperazine], the EC50 [1] is reported as 590 nM, the “Cell LXRβ efficacy” value [1, 5] is reported as 590 (50) % and the Ki [2] is reported as 3170 nM. The Ki [3, 6] was 482 nM, the “Cell LXRα efficacy” value [4] was 3460 (51) % and the EC50 [4, 5] was 3460 nM.
With `CC(=O)NCc1cnc(N2CCN(c3ccc(F)c(S(C)(=O)=O)c3)C[C@H]2C(C)C)nc1C(F)(F)F` [54-2, (R)-N-((2-(4-(4-fluoro-3-(methylsulfonyl)phenyl)-2-isopropylpiperazin-1-yl)-4-(trifluoromethyl)pyrimidin-5-yl)methyl)acetamide] the EC50 [1] was 812 nM, the “Cell LXRβ efficacy” value [1, 5] was 812 (27) % and the Ki [2] was 863 nM. The Ki [3, 6] was 81 nM, the “Cell LXRα efficacy” value [4] was 3064 (29) % and the EC50 [4] was 3060 nM.
`CC(C)[C@@H]1CN(c2ccc(F)c(S(C)(=O)=O)c2)CCN1c1cnc(C(F)(F)F)cn1` [Cpd No 7-44, (R)-2-(4-(4-fluoro-3-(methylsulfonyl)phenyl)-2-isopropylpiperazin-1-yl)-5-(trifluoromethyl)pyrazine] was tested, and the “Cell LXRβ efficacy” value [1] was 19 (118) %, the EC50 [1] was 19 nM and the Ki [2] was 43 nM. The Ki ([3]; read-out: LXRβ Binding Ki) was 4 nM, the “Cell LXRα efficacy” value [4] was 120 (97) % and the EC50 ([4]; agonist mode) was 120 nM.
`CC(C)[C@@H]1CN(c2ccc(-c3nc(C#N)cs3)c(S(C)(=O)=O)c2)CCN1c1ncc(CO)c(C(F)(F)F)n1` [Cpd No 11-12, (R)-2-(4-(4-(5-(hydroxymethyl)-4-(trifluoromethyl)pyrimidin-2-yl)-3-isopropylpiperazin-1-yl)-2-(methylsulfonyl)phenyl)thiazole-4-carbonitrile] was tested, and the EC50 [1] was 41 nM, the “Cell LXRβ efficacy” value ([1]; agonist mode) was 41 (73) % and the Ki [2] was 194 nM. The Ki ([3]; read-out: LXRβ Binding Ki) was 8 nM, the “Cell LXRα efficacy” value [4] was 488 (67) % and the EC50 ([4]; agonist mode) was 488 nM.
For `CC(C)[C@@H]1CN(c2ccc(F)c(S(C)(=O)=O)c2)CCN1c1ncc([C@H](C)O)c(C(F)(F)F)n1` [Cpd No 12-2, (S)-1-(2-((R)-4-(4-fluoro-3-(methylsulfonyl)phenyl)-2-isopropylpiperazin-1-yl)-4-(trifluoromethyl)pyrimidin-5-yl)ethan-1-ol], the EC50 [1] was 117 nM, the “Cell LXRβ efficacy” value ([1]; agonist mode) was 117 (36) % and the Ki [2] was 233 nM. For the same compound, the Ki [3] was 11 nM, the “Cell LXRα efficacy” value [4] was 746 (41) % and the EC50 [4] was 746 nM.
With `CC(C)[C@@H]1CN(c2ccc(F)c(S(C)(=O)=O)c2)CCN1c1ncc([C@@H](C)O)c(C(F)(F)F)n1` [Cpd No 12-3, (R)-1-(2-((R)-4-(4-fluoro-3-(methylsulfonyl)phenyl)-2-isopropylpiperazin-1-yl)-4-(trifluoromethyl)pyrimidin-5-yl)ethan-1-ol] the EC50 [1] was 84 nM, the “Cell LXRβ efficacy” value ([1]; agonist mode) was 84 (29) % and the Ki [2] was 168 nM. For the same compound, the Ki [3] was 6 nM, the “Cell LXRα efficacy” value [4] was 769 (43) % and the EC50 [4] was 769 nM.
In the case of `CC(=O)c1cnc(N2CCN(c3ccc(F)c(S(C)(=O)=O)c3)C[C@H]2C(C)C)nc1C(F)(F)F` [Cpd No 13-1, (R)-1-(2-(4-(4-fluoro-3-(methylsulfonyl)phenyl)-2-isopropylpiperazin-1-yl)-4-(trifluoromethyl)pyrimidin-5-yl)ethan-1-one], the EC50 [1] is reported as 49 nM, the “Cell LXRβ efficacy” value ([1]; agonist mode) is reported as 49 (51) % and the Ki [2] is reported as 62 nM. The Ki [3] was 3 nM, the “Cell LXRα efficacy” value [4] was 253 (63) % and the EC50 [4] was 253 nM.
In the case of `CC(C)[C@@H]1CN(c2ccc(F)c(S(C)(=O)=O)c2)CCN1c1cncc(C(F)(F)F)c1` [Cpd No 20-1, (R)-4-(4-fluoro-3-(methylsulfonyl)phenyl)-2-isopropyl-1-(5-(trifluoromethyl)pyridin-3-yl)piperazine], the EC50 [1] is reported as 141 nM, the “Cell LXRβ efficacy” value ([1]; agonist mode) is reported as 141 (75) % and the Ki [2] is reported as 166 nM. The Ki ([3]; read-out: LXRβ Binding Ki) was 24 nM, the “Cell LXRα efficacy” value [4] was 678 (90) % and the EC50 [4] was 678 nM.
In the case of `CC(C)Oc1cc(C(F)(F)F)nc(N2CCN(c3ccc(F)c(S(C)(=O)=O)c3)C[C@H]2C(C)C)n1` [Cpd No 23-1, (R)-2-(4-(4-fluoro-3-(methylsulfonyl)phenyl)-2-isopropylpiperazin-1-yl)-4-isopropoxy-6-(trifluoromethyl)pyrimidine], the EC50 [1] is reported as over 20000 nM, the Ki [2] is reported as 1180 nM and the Ki [3] is reported as 212 nM. The EC50 ([4]; agonist mode) was over 20000 nM.
With `CC(C)[C@@H]1CN(c2ccc(F)c(S(C)(=O)=O)c2)CCN1c1nc(C(F)(F)F)c(C(C)(C)O)s1` [Cpd No 26-1, (R)-2-(2-(4-(4-fluoro-3-(methylsulfonyl)phenyl)-2-isopropylpiperazin-1-yl)-4-(trifluoromethyl)thiazol-5-yl)propan-2-ol] the EC50 [1] was 185 nM, the “Cell LXRβ efficacy” value ([1]; agonist mode) was 185 (98) % and the Ki [2] was 111 nM. The Ki ([3]; read-out: LXRβ Binding Ki) was 5 nM, the “Cell LXRα efficacy” value [4] was 584 (102) % and the EC50 ([4]; agonist mode) was 584 nM.
`Cc1csc(-c2ccc(N3CCN(c4ncc(CO)c(C(F)(F)F)n4)[C@H](C(C)C)C3)cc2S(C)(=O)=O)n1` [Cpd No 28-1, (R)-(2-(2-isopropyl-4-(3-(methylsulfonyl)-4-(4-methylthiazol-2-yl)phenyl)piperazin-1-yl)-4-(trifluoromethyl)pyrimidin-5-yl)methanol] was tested, and the EC50 [1] was 11 nM, the “Cell LXRβ efficacy” value ([1]; agonist mode) was 11 (79) % and the Ki [2] was 29 nM. The Ki ([3]; read-out: LXRβ Binding Ki) was 3 nM, the “Cell LXRα efficacy” value [4] was 66 (80) % and the EC50 ([4]; agonist mode) was 66 nM.
